Read-outs that look alike come from different tables or passages of the source.
Tests used:
[1] = system: HIV-1 (IIIB) in MT-4 cells; experiment: MT-4 HIV assay; assay type: cell-based; conditions: Human immunodeficiency virus 1, MT4, 120 h
In short: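 Antiviral activity was read by Cell Titer Glo after a 5-day, 37 °C culture of MT-4 cells pre-infected with a 1:250 dilution of HIV-1 (IIIB). Compounds were tested as threefold dilution series in complete RPMI. Controls were no drug, mock infection and 5 uM AZT.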

[2] = In short: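 Each compound (1 uM) is incubated in duplicate with 0.5 mg/mL liver microsomal protein from dog, rat or human plus NADPH-regenerating system. Samples taken at 2, 12, 25, 45 and 65 minutes are deproteinised and quantified by LC/MS/MS. Half-life gives Clint.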
[3] = HIV-1 (IIIB), MT-4 cells, 5 days, Cell Titer Glo, read-out: EC50
[4] = human liver microsomes 0.5 mg/mL, 1 uM compound, NADPH
[5] = rat liver microsomes 0.5 mg/mL, 1 uM compound, NADPH

| SMILES | EC50 [1, 3] [nM] | Human Pred Cl. [2, 4] [L/H/kg] | Rat. Pred. Cl. [2, 5] [L/H/kg] | Human Pred Cl. ([2]; human, microsomes) [L/H/kg] | EC50 [1] [nM] | Rat. Pred. Cl. ([2]; rat, microsomes) [L/H/kg] |
| --- | --- | --- | --- | --- | --- | --- |
| COC(=O)N[C@H](C(=O)N[C@@H](Cc1ccc(C#Cc2ccc(N3C[C@H]4C[C@@H]3CN4C3COC3)nc2)cc1)[C@@H](O)CN(Cc1c(F)cc(-c2cc(F)ccn2)cc1F)NC(=O)[C@@H](NC(=O)OC)C(C)(C)C(F)(F)F)C(C)(C)C(F)(F)F [Example 138, Methyl ((5S,8S,9S,14S)-11-(2,6-difluoro-4-(4-fluoropyridin-2-yl)benzyl)-16,16,16-trifluoro-9-hydroxy-15,15-dimethyl-8-(4-((6-((1R,4R)-5-(oxetan-3-yl)-2,5-diazabicyclo[2.2.1]heptan-2-yl)pyridin-3-yl)ethynyl)benzyl)-3,6,13-trioxo-5-(1,1,1-trifluoro-2-methylpropan-2-yl)-2-oxa-4,7,11,12-tetraazahexadecan-14-yl)carbamate] | 2.32 | 0.17 | 0.95 | – | – | – |
| COC(=O)N[C@H](C(=O)N[C@@H](Cc1ccc(C#Cc2ccc(N3CC4CCC(C3)N4C3(C)COC3)nc2)cc1)[C@@H](O)CN(Cc1c(F)cc(-c2ccn(C(F)F)n2)cc1F)NC(=O)[C@@H](NC(=O)OC)C(C)(C)C(F)(F)F)C(C)(C)C(F)(F)F [Example 144, Methyl ((5S,8S,9S,14S)-11-(4-(1-(difluoromethyl)-1H-pyrazol-3-yl)-2,6-difluorobenzyl)-16,16,16-trifluoro-9-hydroxy-15,15-dimethyl-8-(4-((6-(8-(3-methyloxetan-3-yl)-3,8-diazabicyclo[3.2.1]octan-3-yl)pyridin-3-yl)ethynyl)benzyl)-3,6,13-trioxo-5-(1,1,1-trifluoro-2-methylpropan-2-yl)-2-oxa-4,7,11,12-tetraazahexadecan-14-yl)carbamate] | 5.12 | – | – | 0.95 | – | – |
| COC(=O)N[C@H](C(=O)N[C@@H](Cc1ccc(C#Cc2ccc(N3CCN([C@H]4CCOC4)CC3)nc2)cc1)[C@@H](O)CN(Cc1c(F)cc(-c2ccn(C(F)F)n2)cc1F)NC(=O)[C@@H](NC(=O)OC)C(C)(C)C(F)(F)F)C(C)(C)C(F)(F)F [Example 145, Methyl ((5S,8S,9S,14S)-11-(4-(1-(difluoromethyl)-1H-pyrazol-3-yl)-2,6-difluorobenzyl)-16,16,16-trifluoro-9-hydroxy-15,15-dimethyl-3,6,13-trioxo-8-(4-((6-(4-((S)-tetrahydrofuran-3-yl)piperazin-1-yl)pyridin-3-yl)ethynyl)benzyl)-5-(1,1,1-trifluoro-2-methylpropan-2-yl)-2-oxa-4,7,11,12-tetraazahexadecan-14-yl)carbamate] | – | <0.11 | – | – | 5.06 | – |
| COC(=O)N[C@H](C(=O)N[C@@H](Cc1ccc(C#Cc2ccc(N3CCN([C@@H]4CCOC4)CC3)nc2)cc1)[C@@H](O)CN(Cc1c(F)cc(-c2ccn(C(F)F)n2)cc1F)NC(=O)[C@@H](NC(=O)OC)C(C)(C)C(F)(F)F)C(C)(C)C(F)(F)F [Example 146, Methyl ((5S,8S,9S,14S)-11-(4-(1-(difluoromethyl)-1H-pyrazol-3-yl)-2,6-difluorobenzyl)-16,16,16-trifluoro-9-hydroxy-15,15-dimethyl-3,6,13-trioxo-8-(4-((6-(4-((R)-tetrahydrofuran-3-yl)piperazin-1-yl)pyridin-3-yl)ethynyl)benzyl)-5-(1,1,1-trifluoro-2-methylpropan-2-yl)-2-oxa-4,7,11,12-tetraazahexadecan-14-yl)carbamate] | 8.17 | <0.11 | – | – | – | – |
| COC(=O)N[C@H](C(=O)N[C@@H](Cc1ccc(C#Cc2ccc(N3CC4CCC(C3)N4C3COC3)nc2)cc1)[C@@H](O)CN(Cc1c(F)cc(-c2ccc(N3CC4CCC(C3)N4C3COC3)nc2)cc1F)NC(=O)[C@@H](NC(=O)OC)C(C)(C)C(F)(F)F)C(C)(C)C(F)(F)F [Example 147, Methyl ((5S,8S,9S,14S)-11-(2,6-difluoro-4-(6-(8-(oxetan-3-yl)-3,8-diazabicyclo[3.2.1]octan-3-yl)pyridin-3-yl)benzyl)-16,16,16-trifluoro-9-hydroxy-15,15-dimethyl-8-(4-((6-(8-(oxetan-3-yl)-3,8-diazabicyclo [3.2.1]octan-3-yl)pyridin-3-yl)ethynyl)benzyl)-3,6,13-trioxo-5-(1,1,1-trifluoro-2-methylpropan-2-yl)-2-oxa-4,7,11,12-tetraazahexadecan-14-yl)carbamate] | 6.79 | – | – | <0.11 | – | – |
| COC(=O)N[C@H](C(=O)N[C@@H](Cc1ccc(C#Cc2cnc(N3CC4CCC(C3)N4C3COC3)cc2C)cc1)[C@@H](O)CN(Cc1c(F)cc(-c2cnn(C(F)F)c2)cc1F)NC(=O)[C@@H](NC(=O)OC)C(C)(C)C(F)(F)F)C(C)(C)C(F)(F)F [Example 154, Methyl ((5S,8S,9S,14S)-11-(4-(1-(difluoromethyl)-1H-pyrazol-4-yl)-2,6-difluorobenzyl)-16,16,16-trifluoro-9-hydroxy-15,15-dimethyl-8-(4-((4-methyl-6-(8-(oxetan-3-yl)-3,8-diazabicyclo[3.2.1]octan-3-yl)pyridin-3-yl)ethynyl)benzyl)-3,6,13-trioxo-5-(1,1,1-trifluoro-2-methylpropan-2-yl)-2-oxa-4,7,11,12-tetraazahexadecan-14-yl)carbamate] | 4.81 | – | – | <0.11 | – | <0.18 |
| COC(=O)N[C@H](C(=O)N[C@@H](Cc1ccc(C#Cc2ccc(N3CC4CCC(C3)N4C3COC3)nc2)cc1)[C@@H](O)CN(Cc1ccc(-c2ccn(C(F)F)n2)cc1)NC(=O)[C@@H](NC(=O)OC)C(C)(C)C(F)(F)F)C(C)(C)C(F)(F)F [Example 158, Methyl ((5S,8S,9S,14S)-11-(4-(1-(difluoromethyl)-1H-pyrazol-3-yl)benzyl)-16,16,16-trifluoro-9-hydroxy-15,15-dimethyl-8-(4-((6-(8-(oxetan-3-yl)-3,8-diazabicyclo[3.2.1]octan-3-yl)pyridin-3-yl)ethynyl)benzyl)-3,6,13-trioxo-5-(1,1,1-trifluoro-2-methylpropan-2-yl)-2-oxa-4,7,11,12-tetraazahexadecan-14-yl)carbamate] | 4.37 | – | – | <0.11 | – | 0.22 |
| COC(=O)N[C@H](C(=O)N[C@@H](Cc1ccc(C#Cc2cnc(N3CCN(C)C(=O)C3)nc2)cc1)[C@@H](O)CN(Cc1c(F)cc(-c2ccn(C(F)F)n2)cc1F)NC(=O)[C@@H](NC(=O)OC)C(C)(C)C(F)(F)F)C(C)(C)C(F)(F)F [Example 159, methyl ((5S,8S,9S,14S)-11-(4-(1-(difluoromethyl)-1H-pyrazol-3-yl)-2,6-difluorobenzyl)-16,16,16-trifluoro-9-hydroxy-15,15-dimethyl-8-(4-((2-(4-methyl-3-oxopiperazin-1-yl)pyrimidin-5-yl)ethynyl)benzyl)-3,6,13-trioxo-5-(1,1,1-trifluoro-2-methylpropan-2-yl)-2-oxa-4,7,11,12-tetraazahexadecan-14-yl)carbamate] | – | <0.11 | – | – | 3.83 | – |
| COC(=O)N[C@H](C(=O)N[C@@H](Cc1ccc(C#Cc2ccc(N3CC4(C3)CN(C3COC3)C4)nc2)cc1)[C@@H](O)CN(Cc1c(F)cc(-c2ccn(C(F)F)n2)cc1F)NC(=O)[C@@H](NC(=O)OC)C(C)(C)C(F)(F)F)C(C)(C)C(F)(F)F [Example 163, Methyl ((5S,8S,9S,14S)-11-(4-(1-(difluoromethyl)-1H-pyrazol-3-yl)-2,6-difluorobenzyl)-16,16,16-trifluoro-9-hydroxy-15,15-dimethyl-8-(4-((6-(6-(oxetan-3-yl)-2,6-diazaspiro[3.3]heptan-2-yl)pyridin-3-yl)ethynyl)benzyl)-3,6,13-trioxo-5-(1,1,1-trifluoro-2-methylpropan-2-yl)-2-oxa-4,7,11,12-tetraazahexadecan-14-yl)carbamate] | – | <0.11 | – | – | 2.32 | – |
| COC(=O)N[C@H](C(=O)N[C@@H](Cc1ccc(C#Cc2ccc(N3C[C@@H]4CN(C5COC5)C[C@@H]4C3)nc2)cc1)[C@@H](O)CN(Cc1c(F)cc(-c2ccn(C(F)F)n2)cc1F)NC(=O)[C@@H](NC(=O)OC)C(C)(C)C(F)(F)F)C(C)(C)C(F)(F)F [Example 165, Methyl ((5S,8S,9S,14S)-11-(4-(1-(difluoromethyl)-1H-pyrazol-3-yl)-2,6-difluorobenzyl)-16,16,16-trifluoro-9-hydroxy-15,15-dimethyl-8-(4-((6-((3aR,6aS)-5-(oxetan-3-yl)hexahydropyrrolo[3,4-c]pyrrol-2(1H)-yl)pyridin-3-yl)ethynyl)benzyl)-3,6,13-trioxo-5-(1,1,1-trifluoro-2-methylpropan-2-yl)-2-oxa-4,7,11,12-tetraazahexadecan-14-yl)carbamate] | 4.05 | 0.56 | 3.2 | – | – | – |
| CCN1C2CCC1CN(c1ccc(C#Cc3ccc(C[C@H](NC(=O)[C@@H](NC(=O)OC)C(C)(C)C(F)(F)F)[C@@H](O)CN(Cc4c(F)cc(-c5cnn(C(F)F)c5)cc4F)NC(=O)[C@@H](NC(=O)OC)C(C)(C)C(F)(F)F)cc3)cn1)C2 [Example 167, Methyl ((5S,8S,9S,14S)-11-(4-(1-(difluoromethyl)-1H-pyrazol-4-yl)-2,6-difluorobenzyl)-8-(4-((6-(8-ethyl-3,8-diazabicyclo[3.2.1]octan-3-yl)pyridin-3-yl)ethynyl)benzyl)-16,16,16-trifluoro-9-hydroxy-15,15-dimethyl-3,6,13-trioxo-5-(1,1,1-trifluoro-2-methylpropan-2-yl)-2-oxa-4,7,11,12-tetraazahexadecan-14-yl)carbamate] | 4.97 | – | – | <0.11 | – | – |

— patent publication US10294234B2, “HIV inhibitor compounds” (priority 2017, dated 2019)
